# Test results: patent US20160137746A1, “METHODS FOR TREATING HIGH CARDIOVASCULAR RISK PATIENTS WITH HYPERCHOLESTEROLEMIA” (Sanofi Biotechnology, priority 2014, published 2016)
# Values joined by “and” are separate entries in the source; they are usually repeats but may differ in a detail not shown here. Identical values can stand only once.
# What was measured:
# [1] = system: high cardiovascular risk patients with hypercholesterolemia; assay: ODYSSEY LONG TERM: lipid efficacy of alirocumab 150 mg Q2W vs placebo; type: in vivo, human
# Description: Patients were stratified according to heFH population, prior history of MI or ischemic stroke, statin treatment and geographic region. Patients at high cardiovascular risk were defined as 1) having heFH (who may or may not have CHD/CHD risk equivalents) or 2) no prior diagnosis of heFH but having hypercholesterolemia together with established CHD or CHD risk equivalents.
# Primary analyses of efficacy endpoints were conducted using an ITT approach (based on the ITT population defined above), including all lipid data, regardless of whether the patient was continuing therapy or not. This corresponds to ITT estimands, defined for primary and key secondary endpoints. In addition, analyses were also conducted using an on-treatment approach (based on the mITT population defined above), including lipid data collected during the efficacy treatment period. This corresponds to on-treatment estimands of key secondary endpoints.
# With regards to the primary efficacy analysis (ITT approach), the percent change in calculated LDL-C from baseline to Week 24 was analyzed using a mixed-effect model with repeated measures (MMRM) approach. All post-baseline data available from Week 4 to Week 52 analysis windows were used and missing data were accounted for by the MMRM. […] This model provided baseline adjusted least-squares means (LSmeans) estimates at Week 24 for both treatment groups with their corresponding SEs and 95% confidence intervals.
# Continuous secondary variables anticipated to have a normal distribution (i.e., lipids other than TGs and Lp(a)) were analyzed using the same MMRM model as for the primary endpoint. […] Combined estimate for mean in both treatment groups, as well as the differences of these estimates, with their corresponding SEs, 95% Cls and p-value were provided (through SAS MIANALYZE procedure).
# Binary secondary efficacy endpoints were analyzed using multiple imputation approach for handling of missing values followed by stratified logistic regression with treatment group as main effect and corresponding baseline value(s) as covariate, stratified by randomization factors (as per IVRS). Combined estimates of odds ratio versus placebo, 95% CI, and p-value were provided (through SAS MIANALYZE procedure).
# [2] = system: high cardiovascular risk patients with hypercholesterolemia; assay: ODYSSEY COMBO I: antibodies to alirocumab; type: in vivo, human
# Source text: In seven of these patients, the antibodies were transient and resolved despite continued alirocumab treatment.
# [3] = Week 24, total PCSK9 levels at or above the median
# [4] = Week 24, total PCSK9 levels below the median
# [5] = Week 24, ITT population, MMRM, alirocumab 150 Q2W
# [6] = subgroup baseline HDL-C <40 mg/dL/<1.04 mmol/L, ITT
# [7] = subgroup baseline HDL-C ≧40 mg/dL/≧1.04 mmol/L, ITT
# [8] = subgroup baseline calculated LDL-C <100 mg/dL/<2.59 mmol/L, ITT
# [9] = subgroup baseline calculated LDL-C ≧160 mg/dL/≧4.14 mmol/L, ITT
# [10] = subgroup baseline calculated LDL-C ≧100 to <130 mg/dL/≧2.59 to <3.37 mmol/L, ITT
# [11] = subgroup baseline calculated LDL-C ≧130 to <160 mg/dL/≧3.37 to <4.14 mmol/L, ITT
substance,measurement,setting,value
"Alirocumab: human anti-PCSK9 antibody; HCVR SEQ ID NO:1, LCVR SEQ ID NO:6; CDRs SEQ ID NOs 2/3/4/7/8/10","Calculated LDL-C percent change, treatment effect versus placebo","[1]; Week 24, patients with baseline LDL-C ≧160 mg/dL",−41.3%
same,"Calculated LDL-C percent change, LS mean difference vs placebo",[1]; [3],−66.0%
same,"Calculated LDL-C, LS mean percent change from baseline",[1]; [3],−62.1%
same,"Calculated LDL-C percent change, LS mean difference vs placebo",[1]; [4],−57.3%
same,"Calculated LDL-C, LS mean percent change from baseline",[1]; [4],−60.1%
same,"Calculated LDL-C percent change, LS mean difference vs placebo","[1]; Week 24, women",−56.6%
same,"Calculated LDL-C, LS mean percent change from baseline","[1]; Week 24, women",−53.4%
same,"Apo A1, LS mean (SE) change from baseline to Week 24 (%)","[1]; Week 24, ITT population",4.0 (0.4) %
same,"Apo B, LS mean (SE) change from baseline to Week 24 (%)","[1]; Week 24, ITT population",−52.8 (0.7) %
same,"Fasting triglycerides, combined estimate for adjusted mean (SE) change from baseline to Week 24 (%)","[1]; Week 24, ITT population",−15.6 (0.8) %
same,"HDL-C, LS mean (SE) change from baseline to Week 24 (%)","[1]; Week 24, ITT population",4.0 (0.4) %
same,"Lipoprotein (a), combined estimate for adjusted mean (SE) change from baseline to Week 24 (%)","[1]; Week 24, ITT population",−29.3 (0.7) %
same,"Non-HDL-C, LS mean (SE) change from baseline to Week 24 (%)","[1]; Week 24, ITT population",−51.6 (0.6) %
same,Proportion (%) of patients reaching calculated LDL-C levels at Week 24: <70 mg/dL (regardless of risk),"[1]; Week 24, ITT population",79.3%
same,Proportion (%) of patients reaching calculated LDL-C levels at Week 24: <70 mg/dL (very high risk) or <100 mg/dL (high risk),"[1]; Week 24, ITT population",80.7%
same,"Total cholesterol, LS mean (SE) change from baseline to Week 24 (%)","[1]; Week 24, ITT population",−37.8 (0.5) %
same,"Calculated LDL-C Week 24 percent change from baseline, LS mean difference (SE) vs placebo","[1]; Week 24, ITT population, MMRM",−61.9 (1.3) %
same,"Calculated LDL-C percent change from baseline, LS mean (SE)",[1]; [5],−61.0 (0.7) % and −61.0%
same,"Calculated LDL-C value (absolute level), LS mean (SE)",[1]; [5],48.3 (0.9) mg/dL
same,"Calculated LDL-C value, LS mean (SE)",[1]; [5],1.252 mmol/L
same,LS mean (SE) change from baseline to Week 24 in measured LDL-C,"[1]; Week 24, ITT, LDL-cholesterol measured by beta-quantification",−57.8 (0.8) %
same,"Apo-B - Percent change from baseline to Week 24, LS mean difference vs. placebo","[1]; Week 24, On-treatment",placebo of −55.5%
same,"Calculated LDL-C - Percent change from baseline to Week 24, LS mean difference vs. placebo","[1]; Week 24, On-treatment",placebo of −63.5%
same,"Non-HDL-C - Percent change from baseline to Week 24, LS mean difference vs. placebo","[1]; Week 24, On-treatment",placebo of −53.7%
same,LS mean absolute LDL-C reduction,"[1]; Week 24, subgroup baseline calculated LDL-C <100 mg/dL/<2.59 mmol/L, ITT",-51.6 mg/dL
same,LS mean absolute LDL-C reduction,"[1]; Week 24, subgroup baseline calculated LDL-C ≧160 mg/dL/≧4.14 mmol/L, ITT",-115.8 mg/dL
same,LS mean absolute LDL-C reduction,"[1]; Week 24, subgroup baseline calculated LDL-C ≧100 to <130 mg/dL/≧2.59 to <3.37 mmol/L, ITT",-71.2 mg/dL
same,LS mean absolute LDL-C reduction,"[1]; Week 24, subgroup baseline calculated LDL-C ≧130 to <160 mg/dL/≧3.37 to <4.14 mmol/L, ITT",-85.3 mg/dL
same,"Calculated LDL-C percent change from baseline, LS mean (SE)","[1]; Week 36, ITT population, MMRM, alirocumab 150 Q2W",−59.5%
same,"Calculated LDL-C percent change from baseline, LS mean (SE)","[1]; Week 52, ITT population, MMRM, alirocumab 150 Q2W",−56.8%
same,Additional LDL-C reduction from baseline versus placebo,[1]; Week 78,56%
same,Percentage change from baseline to Week 78 in calculated LDL-C,"[1]; Week 78, ITT population",−52.4 (0.9) %
same,"Percentage change from baseline to Week 78 in calculated LDL-C, LS mean difference (SE) vs placebo","[1]; Week 78, ITT population",−56.0 (1.6) %
same,Percent decrease in LDL cholesterol,"[1]; intention-to-treat, Week 24 (final analysis)",61%
same,"Percent change from baseline in calculated LDL-C at week 24, LS mean difference (SE) vs placebo",[1]; [6],−66.1 (2.8) %
same,"Percent change from baseline in calculated LDL-C at week 24, LS means (SE)",[1]; [6],−65.5 (1.6) %
same,"Percent change from baseline in calculated LDL-C at week 24, LS mean difference (SE) vs placebo",[1]; [7],−60.8 (1.4) %
same,"Percent change from baseline in calculated LDL-C at week 24, LS means (SE)",[1]; [7],−59.9 (0.8) %
same,"Percent change from baseline in calculated LDL-C at week 24, LS mean difference (SE) vs placebo",[1]; [8],−75.0 (2.2) %
same,"Percent change from baseline in calculated LDL-C at week 24, LS means (SE)",[1]; [8],−61.3 (1.3) %
same,"Percent change from baseline in calculated LDL-C at week 24, LS mean difference (SE) vs placebo",[1]; [9],−41.3 (3.3) %
same,"Percent change from baseline in calculated LDL-C at week 24, LS means (SE)",[1]; [9],−59.5 (1.9) %
same,"Percent change from baseline in calculated LDL-C at week 24, LS mean difference (SE) vs placebo",[1]; [10],−62.5 (2.0) %
same,"Percent change from baseline in calculated LDL-C at week 24, LS means (SE)",[1]; [10],−62.0 (1.2) %
same,"Percent change from baseline in calculated LDL-C at week 24, LS mean difference (SE) vs placebo",[1]; [11],−54.6 (2.9) %
same,"Percent change from baseline in calculated LDL-C at week 24, LS means (SE)",[1]; [11],−59.8 (1.7) %
same,Effect of anti-alirocumab antibodies on safety and efficacy,[2]; in vivo,no observed effect on safety and efficacy
same,Median time to detection of antibodies to alirocumab,[2]; in vivo,12 weeks
same,Antibodies to alirocumab detected at baseline,[2]; patients subsequently randomized to alirocumab (3/197),1.5%
same,Anti-alirocumab antibody titer,[2]; treatment-emergent positive patients,≤ 240
